Measured values taken from PMC6065317, “Rice Defensin OsAFP1 is a New Drug Candidate against Human Pathogenic Fungi” (Scientific Reports, 2018).
Like-named read-outs stand apart in the source and are kept apart here. Where a SMILES comes first, the peptide text is derived from it. Where no end group is shown, it is not given here.

How the values were obtained:
Candida species = conditions: existing antifungal drugs; cited from earlier work
Procedure: In the present study, functional analyses of the antifungal activity of the rice-derived defensin OsAFP1 were performed. […] Since MIC values of the existing antifungal drugs, such as fluconazole, amphotericin B, and caspofungin, are in the 0.01–1 μM range[48], further engineering to enhance its function may be required before OsAFP1 can be used as a drug. On the other hand, OsAFP1 was extremely stable upon heat and serum treatments and exerted its antifungal activity by inducing apop ...

[1] = system: C. albicans CAI4 (IFM 61937); conditions: for IC50: OD650
Procedure: (§1) Seven microbial strains were used for OsAFP1 antimicrobial activity testing. P. gingivalis ATCC 33277 cells were cultured in modified Gifu anaerobic medium (GAM) (Nissui, Tokyo, Japan) in an anaerobic jar (Mitsubishi Gas Chemical, Tokyo, Japan) in the presence of a deoxygenating regent (AnaeroPack, Mitsubishi Gas Chemical) for 48 h at 37 °C. E. coli K-12 NBRC3301, S. mutans JCM 5705, S. aureus NBRC 12732, and P. acnes JCM 6473 cells were cultured in Luria-Bertani (LB) broth, brain-heart infusion broth (Nissui), trypticase soy broth (BD Biosciences, Franklin Lakes, NJ, USA), and GAM broth (Nissui), respectively, under facultative anaerobic conditions for 4–24 h at 37 °C. C. albicans CAI4 (IFM 61937) cells were cultured in 0.5 × potato dextrose broth (PDB) supplemented with 25 μg/ml of uridine under facultative anaerobic conditions for 14 h at 30 °C. S. cerevisiae BY4742 and S288C cells were cultured in 0.5 × PDB supplemented with 30 μg/ml of uridine, histidine, and lysine and 60 μg/ml of leucine under facultative anaerobic conditions for 14 h at 27 °C. These microbial strains were purchased from the American Type Culture Collection (Manassas, VA, USA), National Institute of Technology and Evaluation (Tokyo, Japan), RIKEN BioResource Center (Tsukuba, Japan), Medical Mycology Research Center (Chiba, Japan), and GE Healthcare (Little Chalfont, UK).
Antifungal assays to determine the MIC of OsAFP1 were performed as follows. Fungal cells (1 × 10^5 cells) were suspended in 100 μl of the appropriate medium containing 0–32 μM OsAFP1 in 96-well Costar cell culture plates. After incubation, OD650 was measured using a plate reader. […] In those cases, the cultures were plated on agar plates (0.5 × PDB), and the peptide concentration at which viable cell numbers were 1% or less than that in the control culture was considered the MIC. GraphPad Prism version 6.00 for Macintosh (GraphPad Software, La Jolla, CA, USA) was used to calculate IC50 values. Experiments were independently repeated at least three times. Detailed growth conditions for each fungus are provided in the “Microorganisms and culture conditions” section above.

[2] = system: Saccharomyces cerevisiae BY4742; assay: Antifungal assay (growth inhibition, OD650); format: cell-based; conditions: S. cerevisiae BY4742; 0.5 × PDB with supplements, 27 °C, 14 h; MIC = >99% reduction of OD650
Procedure: as §1, with “These microbial strains were purchased from the American Type Culture Collection (Manassas, VA, USA), National Institute of Technology and Evaluation (Tokyo, Japan), RIKEN BioResource Center (Tsukuba, Japan), Medical Mycology Research Center (Chiba, Japan), and GE Healthcare (Little Chalfont, UK).” left out
(§2) Antifungal assays to determine the MIC of OsAFP1 were performed as follows. […] After incubation, OD650 was measured using a plate reader. […]

[3] = system: Saccharomyces cerevisiae S288C; assay: Antifungal assay (growth inhibition, OD650); format: cell-based; conditions: S. cerevisiae S288C; 0.5 × PDB with supplements, 27 °C, 14 h; MIC = >99% reduction of OD650
Procedure: as §1, with “These microbial strains were purchased from the American Type Culture Collection (Manassas, VA, USA), National Institute of Technology and Evaluation (Tokyo, Japan), RIKEN BioResource Center (Tsukuba, Japan), Medical Mycology Research Center (Chiba, Japan), and GE Healthcare (Little Chalfont, UK).” left out
as §2

Escherichia coli K-12 = assay: Antibacterial assay (BacTiter-Glo ATP luminescence); format: cell-based; conditions: E. coli K-12; LB broth, 37 °C; 0–32 μM; MIC = >99% reduction of ATP luminescence
Procedure: as §1
(§3) Recombinant OsAFP1 and its mutants used in this study were prepared as described in “Supplementary Information”. Antibacterial assays to determine the MIC of OsAFP1 were performed using a modified BacTiter-Glo Luminescent cell viability assay kit (Promega, Madison, WI, USA). This assay quantifies ATP in bacterial cultures to determine the number of live cells. All procedures were performed following the manufacturer’s instructions. Briefly, bacterial cells (1 × 10^4 cells/ml) were cultured in 100 μl of the appropriate medium (as specified in the “Microorganisms and culture conditions” section) in the presence of 0–32 μM OsAFP1 in 96-well Costar cell culture plates. After appropriate incubation for 4–40 h, 10 μl of Lucifell ATP-eliminating reagent (Kikkoman, Chiba, Japan) was added to each well to reduce medium-derived ATP and mixed for 10 min using an orbital shaker. The cell culture (50 μl) was mixed gently with BacTiter-Glo reagent (50 μl) in a well of white Optiplate-96 plates. After incubation for 15 s, luminescence at 560 nm was measured using a plate reader. MIC was defined as the minimum concentration of OsAFP1 that reduced the sample ATP luminescence by >99% compared with that of the control culture. Experiments were independently repeated at least three times.

[4] = system: Porphyromonas gingivalis ATCC 33277; assay: as above; format: cell-based; conditions: P. gingivalis ATCC 33277; modified GAM, anaerobic, 37 °C; 0–32 μM; MIC = >99% reduction of ATP luminescence
Procedure: as §1, §3

[5] = system: Propionibacterium acnes JCM 6473; assay: as above; format: cell-based; conditions: P. acnes JCM 6473; GAM broth, 37 °C; 0–32 μM; MIC = >99% reduction of ATP luminescence
Procedure: as §1, §3

[6] = system: Staphylococcus aureus subsp. aureus NBRC 12732; assay: as above; format: cell-based; conditions: S. aureus NBRC 12732; trypticase soy broth, 37 °C; 0–32 μM; MIC = >99% reduction of ATP luminescence
Procedure: as §1, §3

[7] = system: Streptococcus mutans JCM 5705; assay: as above; format: cell-based; conditions: S. mutans JCM 5705; brain-heart infusion broth, 37 °C; 0–32 μM; MIC = >99% reduction of ATP luminescence
Procedure: as §1, §3

C. albicans CAI4 cells [8] = assay: Fungicidal assay (CFU time course); format: cell-based, Candida albicans; conditions: 16 μM (4 × MIC), 30 °C, CFU count, n = 3
Procedure: C. albicans CAI4 cells (2 × 10^5 cells/ml) were treated with OsAFP1 and incubated at 30 °C for 0, 0.17, 0.5, 1, 2, and 4 h. After being washed three times with KPB, the cells were plated on agar plates (0.5 × PDB). Calculated CFUs in the plate were used as indicators of viable cells. […] Therefore, in the present assay, 4 × MIC concentration was used, because long-term OsAFP1 treatment may produce various undesirable effects other than fungicidal activity and make the assay difficult to interpret. 4 × MIC concentration was also applied in the subsequent annexin V assay and ICC staining analysis.

C. albicans CAI4 = assay: Thermal stability (MIC of heat-treated peptide); format: cell-based, Candida albicans; conditions: peptide heated at 100 °C for 10 min, 0–8 μM, OD650, n = 3
Procedure: Antifungal assays to determine the MIC of OsAFP1 were performed as follows. Fungal cells (1 × 10^5 cells) were suspended in 100 μl of the appropriate medium containing 0–32 μM OsAFP1 in 96-well Costar cell culture plates. After incubation, OD650 was measured using a plate reader. […] In some measurements, because of aggregation of medium components, it was difficult to determine MIC values. In those cases, the cultures were plated on agar plates (0.5 × PDB), and the peptide concentration at which viable cell numbers were 1% or less than that in the control culture was considered the MIC. GraphPad Prism version 6.00 for Macintosh (GraphPad Software, La Jolla, CA, USA) was used to calculate IC50 values. Experiments were independently repeated at least three times. Detailed growth conditions for each fungus are provided in the “Microorganisms and culture conditions” section above.
Thermal stability of OsAFP1 was evaluated by comparing the MIC of heat-treated (10 min at 100 °C) peptide to the MIC of untreated peptide.

[9] = system: C. albicans CAI4 cytoplasmic membrane; assay: PI uptake assay (flow cytometry); format: cell-based, Candida albicans; conditions: 4 × IC50 (6 μM melittin, 8 μM OsAFP1, 20 or 24 μM peptide 1, 40 μM peptide 7), 30 °C, 3 h, PI 5 μg/ml, PBS control 0.1 %
Procedure: C. albicans CAI4 cells (2 × 10^5 cells/ml) were treated with OsAFP1, peptide 1, peptide 7, or melittin at 4 × IC50 concentrations (8 μM for OsAFP1, 24 μM for peptide 1, 40 μM for peptide 7, and 6 μM for melittin[52],[53]) and incubated at 30 °C for 3 h. After the addition of PI (5 μg/ml) and incubation at room temperature in the dark for 30 min, the cells were analysed using a flow cytometer equipped with a 488 nm air-cooled argon laser. At least 10,000 events per sample were recorded. As a negative control, PBS was used instead of antifungal agents, and the mixtures were treated in the same way.

C. albicans CAI4 cells [10] = assay: Annexin V assay (apoptosis, epifluorescence microscopy); format: cell-based, Candida albicans; conditions: 16 μM (4 × MIC), 30 °C, 0.5 h; epifluorescence microscope
Procedure: After being washed three times with KPB, the cells were resuspended in 500 μl of 1 × binding buffer and mixed with 5 μl each of annexin V-FITC and PI reagent (BioVision, Mountain View, CA, USA). The mixtures were incubated at room temperature in the dark for 5 min, and the cells were then observed under a TE2000-S epifluorescence microscope (Nikon, Tokyo, Japan) equipped with an appropriate objective lens [CFI Plan Fluor 100 × oil (Nikon)] and bandpass filters with 542 nm excitation and 620 nm emission for PI and 494 nm excitation and 518 nm emission for FITC.

[11] = Table 2, synthetic partial peptides against C. albicans, tested up to 25 μM

C[C@@H]1[C@H](O)[C@@H](C)/C=C/C=C/C=C/C=C/C=C/C=C/C=C/[C@H](O[C@@H]2O[C@H](C)[C@@H](O)[C@H](N)[C@@H]2O)C[C@@H]2O[C@](O)(C[C@@H](O)C[C@@H](O)[C@H](O)CC[C@@H](O)C[C@@H](O)CC(=O)O[C@H]1C)C[C@H](O)[C@H]2C(=O)O [amphotericin B]
MIC values (Candida species): 0.01 to 1 µM

CSCC[C@H](NC(=O)CNC(=O)[C@H](CCCCN)NC(=O)[C@H](Cc1ccccc1)NC(=O)[C@H](CCCNC(=N)N)NC(=O)[C@H](Cc1c[nH]cn1)NC(=O)[C@@H](N)CO)C(=O)N[C@@H](CS)C(=O)N[C@H](C(=O)N[C@@H](CO)C(=O)O)C(C)C [compound 2] (H-SHRFKGMCVS-OH)
IC50 [1, 11]: 19 µM

CC(C)[C@H](N)C(=O)N[C@@H](CO)C(=O)N[C@@H](CO)C(=O)N[C@@H](CC(N)=O)C(=O)N[C@@H](CC(N)=O)C(=O)N[C@@H](CS)C(=O)N[C@@H](C)C(=O)N[C@@H](CC(N)=O)C(=O)N[C@H](C(=O)O)C(C)C [compound 3] (H-VSSNNCANV-OH)
IC50 [1, 11]: > 25 µM

C[C@@H](O)[C@H](NC(=O)[C@@H](N)CCCNC(=N)N)C(=O)N[C@@H](CCC(=O)O)C(=O)N[C@@H](CO)C(=O)N[C@@H](Cc1ccccc1)C(=O)N1CCC[C@H]1C(=O)N[C@@H](CC(=O)O)C(=O)NCC(=O)N[C@@H](CCC(=O)O)C(=O)O [compound 5] (H-RTESFPDGE-OH)
IC50 [1, 11]: > 25 µM

NCCCC[C@H](NC(=O)[C@H](CS)NC(=O)[C@H](CCC(=O)O)NC(=O)CNC(=O)[C@H](CC(=O)O)NC(=O)[C@@H]1CCCN1C(=O)[C@@H](N)Cc1ccccc1)C(=O)N[C@@H](CO)C(=O)N[C@@H](Cc1c[nH]cn1)C(=O)NCC(=O)O [compound 6] (H-FPDGECKSHG-OH)
IC50 [1, 11]: > 25 µM

OC(Cn1cncn1)(Cn1cncn1)c1ccc(F)cc1F [fluconazole]
MIC values (Candida species): 0.01 to 1 µM

CC(C)C[C@H](NC(=O)[C@H](CS)NC(=O)[C@H](Cc1c[nH]cn1)NC(=O)[C@@H](N)CCCNC(=N)N)C(=O)N[C@@H](CO)C(=O)N[C@@H](CCC(N)=O)C(=O)N[C@@H](CO)C(=O)N[C@@H](Cc1c[nH]cn1)C(=O)N[C@@H](CCCNC(=N)N)C(=O)N[C@@H](Cc1ccccc1)C(=O)O [peptide 1] (H-RHCLSQSHRF-OH)
IC50 [1, 11]: 6 µM

CC(C)C[C@H](NC(=O)CNC(=O)[C@H](Cc1c[nH]cn1)NC(=O)[C@H](CO)NC(=O)[C@@H](N)CCCCN)C(=O)N[C@@H](CCC(=O)O)C(=O)N[C@@H](CCCNC(=N)N)C(=O)N[C@@H](CCCCN)C(=O)N[C@@H](CS)C(=O)N[C@@H](Cc1ccccc1)C(=O)O [peptide 7] (H-KSHGLERKCF-OH)
IC50 [1, 11]: 10 µM

OsAFP1: rice defensin (Os02g41904, UniProtKB Q6K209); recombinant mature peptide produced in E. coli, four disulphide bonds (RHCLSQSHRFKGMCVSSNNCANVCRTESFPDGECKSHGLERKCFCKKVC; disulfide (positions not given here); UniProt Q6K209 32-80, looked up)
MIC ([1]; C. albicans CAI4, 1 × 10^5 cells in 100 μl 0.5 × PDB + 25 μg/ml uridine, 30 °C, 14 h, 0–32 μM, MIC = >99% reduction of OD650, repeated at least three times): 4 µM
IC50 ([1]; read-out: half maximal inhibitory concentration (IC50), C. albicans CAI4 growth, GraphPad Prism, wild-type OsAFP1 (Fig. 1a)): 2 µM
MIC [2]: 4 µM
MIC [3]: 16 µM
MIC (Escherichia coli K-12): >32 µM
MIC [4]: >32 µM
MIC [5]: >32 µM
MIC [6]: >32 µM
MIC [7]: >32 µM
C. albicans cells died (C. albicans CAI4 cells [8]; 30 min): about 50%
C. albicans cells died (C. albicans CAI4 cells [8]; 4 h): almost all cells died
MIC of heat-treated peptide (C. albicans CAI4): 8 µM
cells stained with PI [9]: 3.6%
annexin V-FITC fluorescence (early apoptosis) (C. albicans CAI4 cells [10]): almost all fungal cells emitted fluorescence

caspofungin
MIC values (Candida species): 0.01 to 1 µM
